Biological target: T1, Ubiquitin carboxyl-terminal hydrolase 19 (Homo sapiens, UniProt O94966)
T1 sequence (O94966 whole entry): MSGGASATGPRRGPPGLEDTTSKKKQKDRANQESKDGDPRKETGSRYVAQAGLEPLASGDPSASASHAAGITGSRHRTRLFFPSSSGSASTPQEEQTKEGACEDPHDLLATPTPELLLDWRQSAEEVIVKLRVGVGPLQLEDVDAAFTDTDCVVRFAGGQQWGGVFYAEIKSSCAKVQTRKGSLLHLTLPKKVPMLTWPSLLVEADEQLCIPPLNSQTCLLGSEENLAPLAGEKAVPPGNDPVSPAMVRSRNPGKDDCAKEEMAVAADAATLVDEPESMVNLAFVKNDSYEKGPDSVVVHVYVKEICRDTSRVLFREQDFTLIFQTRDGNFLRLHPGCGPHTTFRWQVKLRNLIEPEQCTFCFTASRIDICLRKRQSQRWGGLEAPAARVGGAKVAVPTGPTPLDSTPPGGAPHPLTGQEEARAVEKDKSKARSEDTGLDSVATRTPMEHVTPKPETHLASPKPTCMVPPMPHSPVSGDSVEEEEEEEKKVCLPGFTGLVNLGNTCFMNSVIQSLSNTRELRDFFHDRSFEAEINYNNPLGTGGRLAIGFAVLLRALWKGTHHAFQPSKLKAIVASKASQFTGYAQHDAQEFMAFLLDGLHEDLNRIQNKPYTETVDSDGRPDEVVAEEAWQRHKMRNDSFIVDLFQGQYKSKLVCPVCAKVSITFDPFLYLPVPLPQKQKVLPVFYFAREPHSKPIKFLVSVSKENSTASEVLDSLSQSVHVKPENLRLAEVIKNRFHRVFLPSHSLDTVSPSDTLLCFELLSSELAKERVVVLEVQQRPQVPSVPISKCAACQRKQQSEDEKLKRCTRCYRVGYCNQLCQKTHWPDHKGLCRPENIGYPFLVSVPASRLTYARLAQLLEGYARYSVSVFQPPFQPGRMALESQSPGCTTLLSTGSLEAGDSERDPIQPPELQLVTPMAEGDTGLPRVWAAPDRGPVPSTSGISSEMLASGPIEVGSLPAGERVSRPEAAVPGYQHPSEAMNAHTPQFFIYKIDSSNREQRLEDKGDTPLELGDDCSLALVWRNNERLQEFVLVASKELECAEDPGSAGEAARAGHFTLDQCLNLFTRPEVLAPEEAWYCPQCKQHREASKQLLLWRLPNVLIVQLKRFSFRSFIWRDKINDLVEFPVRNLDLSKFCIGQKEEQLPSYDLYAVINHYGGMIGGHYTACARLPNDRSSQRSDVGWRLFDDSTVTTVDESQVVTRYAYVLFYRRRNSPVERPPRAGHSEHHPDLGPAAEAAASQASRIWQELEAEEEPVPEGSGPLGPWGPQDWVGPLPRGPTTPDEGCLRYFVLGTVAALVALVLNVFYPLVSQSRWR
Assay: Inhibition of C-terminal His6-tagged recombinant human USP19 using iso-peptide ubiquitin-Lys-TAMRA as substrate incubated for 30 mins and measured after 90 mins by fluorescent polarization assay

| SMILES | IC50 [µM] |
| --- | --- |
| O=C(C(F)CC1CCCCC1)N1CCC(O)(Cn2cnc(-c3ccccc3F)cc2=O)CC1 (racemic) | ≥ 50 |
| O=C(CCC1CCC1)N1CCC(O)(Cn2cnc(-c3ccccc3F)cc2=O)CC1 | ≥ 50 |
| CC(n1cnc(-c2ccccc2)cc1=O)C1(O)CCN(C(=O)[C@H](C)CC2CCCCC2)CC1 (stereo partly specified) | ≤ 5 |
| C[C@@H]1CN(C(=O)c2cn(C[C@]3(O)CCN(C(=O)[C@H](C)CC4CCCCC4)CC3(C)C)c(=O)cc2-c2ccccc2)CCN1 | < 0.5 |
| O=C(c1cn(C[C@]2(O)CCN(C(=O)[C@H](CO)CC(F)(F)F)CC23CCCC3)c(=O)cc1-c1ccccc1)N1CCOCC1 | < 0.5 |
| C[C@H](CC1CCCCC1)C(=O)N1CC[C@@](O)(Cn2cc(C(=O)N3CCNCC3)c(-c3ccccc3F)cc2=O)C(C)(C)C1 | < 0.5 |
| C[C@H](CC1CCCCC1)C(=O)N1CC[C@@](O)(Cn2cc(C(=O)N3CCNCC3)c(-c3ccccc3)cc2=O)C(C)(C)C1 | < 0.5 |
| CN(C)C(=O)c1cn(C[C@]2(O)CCN(C(=O)[C@H](CO)CC(F)(F)F)CC23CCCC3)c(=O)cc1-c1ccccc1 | < 0.5 |
| C[C@H](CC1CCC1)C(=O)N1CC[C@@](O)(Cn2cc(C(=O)N3CCNCC3)c(-c3ccccc3)cc2=O)C2(CCCC2)C1 | < 0.5 |
| C[C@H](CC1CCCCC1)C(=O)N1CCC(O)(Cn2cc(C(=O)N(C)C)c(-c3ccsc3)cc2=O)C2(CCCC2)C1 (stereo partly specified) | < 0.5 |
| CC(OC1CCCCC1)C(=O)N1CCC(O)(Cn2cnc(-c3ccccc3F)cc2=O)C(C)(C)C1 (stereo unspecified) | ≥ 50 |
| C[C@H](CC1CCCCC1)C(=O)N1CCC(O)(Cn2cc(C(=O)N(C)C)c(Cl)cc2=O)C2(CCCC2)C1 (stereo partly specified) | < 0.5 |
| C[C@H](CC(F)(F)F)C(=O)N1CC[C@@](O)(Cn2cnc(-c3cccc(F)c3)cc2=O)C2(CCCC2)C1 | < 0.5 |
| CCOC(=O)c1cn(C[C@]2(O)CCN(C(=O)[C@H](C)CC3CCCCC3)CC23CCCC3)c(=O)cc1-c1ccccc1 | < 0.5 |
| C[C@H](CC1CCCCC1)C(=O)N1CC[C@@](O)(Cn2cc(C(=O)N(C)C)c(C3CC3)cc2=O)C2(CCCC2)C1 | < 0.5 |
| C[C@H](CC1CCCCC1)C(=O)N1CCC(O)(Cn2cc(C(=O)N3CCOCC3)c(-c3ccccc3)cc2=O)C(C)(C)C1 (stereo partly specified) | < 0.5 |
| CN(C)C(=O)c1cn(CC2(O)CCN(C(=O)C(O)CC3CCCCC3)CC23CCCC3)c(=O)cc1-c1ccccc1 (stereo unspecified) | < 0.5 |
| C[C@H](CC1CCCCC1)C(=O)N1CC[C@@](O)(Cn2cc(C(=O)N3CCNC[C@H]3CO)c(-c3ccccc3)cc2=O)C(C)(C)C1 | < 0.5 |
| C[C@H](CC1CCCCC1)C(=O)N1CC[C@@](O)(Cn2cc(C(=O)N(C)C)c(-c3ccccc3F)cc2=O)C(C)(C)C1 | < 0.5 |
| C[C@H](CC1CCCCC1)C(=O)N1CC[C@@](O)(Cn2cc(C(=O)N3CCN(C)CC3)c(-c3ccccc3)cc2=O)C2(CCCC2)C1 | < 0.5 |
| O=C(c1cn(C[C@]2(O)CCN(C(=O)C(CC(F)(F)F)CC(F)(F)F)CC23CCCC3)c(=O)cc1-c1ccccc1)N1CCNCC1 | ≤ 5 |
| C[C@H](CC(F)(F)F)C(=O)N1CC[C@@](O)(Cn2cc(C(=O)N3CCOCC3)c(-c3ccccc3)cc2=O)C2(CCCC2)C1 | < 0.5 |
| CC(CN1CCCCC1)C(=O)N1CCC(O)(Cn2cc(C(=O)N(C)C)c(-c3ccccc3)cc2=O)C2(CCCC2)C1 (stereo unspecified) | ≥ 5 |
| C[C@H](CC(F)(F)F)C(=O)N1CC[C@@](O)(Cn2cc(C(=O)N3CCN(C)CC3)c(-c3ccccc3)cc2=O)C2(CCCC2)C1 | < 0.5 |

Other lines, results leading:

| IC50 [µM] | SMILES |
| --- | --- |
| < 0.5 | CN(C)C(=O)c1cn(C[C@]2(O)CCN(C(=O)[C@H](CO)CC3CCCCC3)CC2(C)C)c(=O)cc1-c1ccccc1 |
| < 0.5 | C[C@H](CC1CCC1)C(=O)N1CC[C@@](O)(Cn2cc(C(=O)N(C)C)c(-c3ccccc3F)cc2=O)C2(CCCC2)C1 |
| < 0.5 | C[C@H](CC1CCCCC1)C(=O)N1CC[C@@](O)(Cn2cc(C(=O)N3CCNCC3)c(C3CC3)cc2=O)C2(CCCC2)C1 |
| < 0.5 | C[C@H](CC1CCCCC1)C(=O)N1CCC(O)(Cn2cc(C(=O)N(C)C)c(N(C)C)cc2=O)C2(CCCC2)C1 (stereo partly specified) |
| < 0.5 | C[C@H](CC(F)(F)F)C(=O)N1CC[C@@](O)(Cn2cnc(-c3ccccc3)cc2=O)C2(CCCC2)C1 |
| < 0.5 | C[C@H](CC1CCCCC1)C(=O)N1CC[C@@](O)(Cn2cc(C(=O)N(C)C)c(-c3ccccc3F)cc2=O)C2(CCCC2)C1 |
| < 0.5 | C[C@H](CC1CCCCC1)C(=O)N1CC[C@@](O)(Cn2cc(C(=O)N3CCCC3)c(-c3ccccc3)cc2=O)C(C)(C)C1 |
| < 0.5 | C[C@H](CC1CCC1)C(=O)N1CC[C@@](O)(Cn2cc(C(=O)N3CCNCC3)c(-c3ccccc3F)cc2=O)C2(CCCC2)C1 |
| < 0.5 | C[C@H](CC1CCCCC1)C(=O)N1CC[C@@](O)(Cn2cc(C(=O)N3CCOCC3)c(-c3ccccc3)cc2=O)C2(CCCC2)C1 |
| < 0.5 | C[C@H](CC(F)(F)F)C(=O)N1CC[C@@](O)(Cn2cc(C(=O)N(C)C)c(-c3ccccc3)cc2=O)C2(CCCC2)C1 |
| < 0.5 | C[C@H](CC(F)(F)F)C(=O)N1CC[C@@](O)(Cn2cnc(-c3ccccc3F)cc2=O)C2(CCCC2)C1 |
| < 0.5 | O=C(C1CCNC1c1ccccc1)N1CC[C@@](O)(Cn2cnc(-c3ccccc3)cc2=O)C2(CCCC2)C1 (stereo partly specified) |
| < 0.5 | CC(C)N(C)C(=O)c1cn(CC2(O)CCN(C(=O)[C@H](C)CC3CCCCC3)CC2(C)C)c(=O)cc1-c1ccccc1 (stereo partly specified) |
| < 0.5 | C[C@H](CC1CCCCC1)C(=O)N1CC[C@@](O)(Cn2cc(C(=O)N(C)C)c(-c3ccccc3)cc2=O)C2(CCCC2)C1 |
| < 0.5 | COC[C@H](CC1CCCCC1)C(=O)N1CC[C@@](O)(Cn2cc(C(=O)N(C)C)c(-c3ccccc3)cc2=O)C(C)(C)C1 |
| < 0.5 | C[C@H](CC(F)(F)F)C(=O)N1CC[C@@](O)(Cn2cc(C(=O)N3CCNCC3)c(-c3ccccc3)cc2=O)C2(CCCC2)C1 |
| < 0.5 | C[C@H](CC1CCCCC1)C(=O)N1CCC(O)(Cn2cc(C(=O)N(C)C)c(-c3ccccc3)cc2=O)C2(CCCCC2)C1 (stereo partly specified) |

From ChEMBL document CHEMBL5052841, “Usp19 inhibitors for use in therapy” (2020)
